Source: patent US5620955A, “Bombesin receptor antagonists and uses thereof” (Peptide Technologies Corporation, priority 1993, dated 1997)
Like-named read-outs stand apart in the source and are kept apart here. Positions of bridges follow the written chain, without caps; N, C: chain ends. Non-standard residues stand in square brackets, D forms with d. Residues, ends and D or L forms follow the SMILES beside them. *: point of attachment. Chlorambucil = O=C(CCCc1ccc(N(CCCl)CCCl)cc1)*; NH(4-Br-phenethyl) = Brc1ccc(CCN*)cc1; X1 = O=C(CCCc1ccc(N(CCO)CCCl)cc1)*; 1Naphthoyl = O=C(c1cccc2ccccc12)*; Bz = O=C(c1ccccc1)*; NHPr = CCCN*

Tests used:
BBN receptor [1] = molecular target: T1, BBN receptor (Homo sapiens, UniProt P30550); experiment: Cytosolic Ca++ assay in SCLC cell line NCI-H345; assay type: cell-based; design: key: antagonized (A); had no effect (--) on the ability of 10 nM BBN to; conditions: compound 10 μM; 10 nM BBN elevation of cytosolic Ca++
T1 construct: endogenous in cells; host or cells: NCI-H345 (human SCLC)
T1 sequence (P30550 whole entry): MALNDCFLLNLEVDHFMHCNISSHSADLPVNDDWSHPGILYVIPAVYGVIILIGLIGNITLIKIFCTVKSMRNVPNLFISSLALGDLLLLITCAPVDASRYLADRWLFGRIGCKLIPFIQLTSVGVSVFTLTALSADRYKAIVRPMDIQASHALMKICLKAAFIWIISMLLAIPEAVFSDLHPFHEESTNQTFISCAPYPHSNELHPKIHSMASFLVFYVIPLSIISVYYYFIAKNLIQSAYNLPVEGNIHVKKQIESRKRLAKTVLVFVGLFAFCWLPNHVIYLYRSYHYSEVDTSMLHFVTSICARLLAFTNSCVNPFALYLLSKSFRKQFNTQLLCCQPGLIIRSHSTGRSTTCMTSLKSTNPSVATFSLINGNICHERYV
Experimental: SCLC cell line NCI-H345 was cultured for two days in medium containing 10^-8 M hydrocortisone, 5 μg/ml bovine insulin, 10 μg/ml human transferrin, 10^-8 M β-estradiol and 3×10^-8 M Na2 SeO3. The cells were harvested and washed, resuspended in medium containing 20 mM HEPES, pH 7.4, and loaded with 5 μM Fura 2 AM (Calbiochem) for 30 minutes. The cells were centrifuged at 150×g for 10 minutes to remove extracellular dye and resuspended and placed in a spectrofluorometer cell equipped with stirring and 37° C. heating. The emission was read at 510 nm with 340 excitation (Moody et al., Biochem. Biophys. Res. Commun. 147:189 (1987)). The response of compounds at 5 μM was measured initially as a screen and compared to that of 10 nM BBN. The response of varying concentrations of peptide (nM to μM) in the presence of 10 nM BBN was determined.

NCI-H345 = experiment: Clonagenic assay, colony formation of NCI-H345; assay type: cell-based, human; design: key to Growth: significantly reduced (R); had no effect (--) on th; conditions: compound 1 μM; clonal growth of a human tumor cell line
Experimental: The effect of 1 to 1000 nM concentration of peptides on growth of NCI-H345 colonies stimulated by 10 nM BBN was measured in the agarose cloning system (Mahoud et al., Cancer Res. 51:1798 (1991); Staley et al., Peptides 12:145-149 (1991)). […] On the day of the assay, cells were harvested, centrifuged and suspended in the buffer. The agarose cloning system consisted of 3 ml of 0.5% agarose in SIT medium with 5% fetal bovine serum in six well plates. To a top layer, consisting of 3 ml HITES medium in 0.3% agarose, the peptides at two times concentration and 6×10^4 single viable cells, were added. For each peptide concentration, triplicate wells were plated. After two weeks, 1 ml of 0.1% p-iodo-nitrotetrazolium violet was added, and after 16 hours at 37° C., the plates were screened for colony formation; the number of colonies larger than […] in diameter were counted using a Bausch and Lomb Omnicon image analysis system.

BBN receptor [2] = molecular target: T1, BBN receptor; experiment: Inhibition of [125I]Tyr4-BBN binding to SCLC NCI-H345 membranes; conditions: for inhibition of BBN binding to SCLC membranes (in words): radiolabelled Tyr4-BBN
Experimental: (§1) Acinar cells from rat pancreas bind BBN and secrete amylase when treated with BBN. The ability of potential antagonists to bind to rat pancreatic acinar cells was examined by determining the ability of the compounds to inhibit the binding of radiolabelled BBN. […] Finally, antagonist activity of the compounds was determined by measuring the ability of compounds to prevent the release of amylase from cells in response to BBN. […] This cell line was also used to evaluate biological activities of potential antagonists derived from the structures of BBN and GRP. The binding of synthetic compounds to cellular membranes prepared from NCI-H345 was determined. The ability of potential antagonists to block the BBN-stimulated increase in cytosolic levels of Ca^++ was determined. Compounds showing inhibition were further tested to determine the effect on growth of two human SCLC cell lines in culture.
Potential antagonists were also evaluated for their ability to inhibit the binding of radiolabelled Tyr^4 -BBN to SCLC membranes and for their effects on BBN signal transduction in SCLC cells.

BBN receptor [3] = molecular target: T2, BBN receptor (Rattus norvegicus, UniProt P52500); experiment: Inhibition of bombesin-stimulated amylase release from rat pancreatic acini; assay type: cell-based; conditions: half-maximal inhibition of bombesin-stimulated amylase release from acini; mean ± s.e.m.
T2 sequence (P52500 whole entry): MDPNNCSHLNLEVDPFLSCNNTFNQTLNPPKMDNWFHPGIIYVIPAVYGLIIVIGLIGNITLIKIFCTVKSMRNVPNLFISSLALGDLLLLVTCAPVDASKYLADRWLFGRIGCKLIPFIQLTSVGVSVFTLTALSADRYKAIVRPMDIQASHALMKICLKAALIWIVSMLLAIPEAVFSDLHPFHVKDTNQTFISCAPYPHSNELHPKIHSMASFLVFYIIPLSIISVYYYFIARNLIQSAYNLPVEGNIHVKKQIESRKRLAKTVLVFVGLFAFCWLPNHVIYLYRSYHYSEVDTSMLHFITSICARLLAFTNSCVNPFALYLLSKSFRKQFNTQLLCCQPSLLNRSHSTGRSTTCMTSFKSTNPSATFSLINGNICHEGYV
Experimental: as §1
The incubation solution contained 1% albumin and the wash solution contained 0.2% albumin. The solution was equilibrated with 100% O2. Dispersed acini were suspended in 20 ml of solution. Samples of 1 ml were incubated in the presence of various concentrations of compounds in the presence of 1 nM bombesin. After the first incubation the samples were washed 4 times with wash solution at 4° C. The acini were then resuspended in fresh incubation buffer and incubated at 37° C. Amylase release was measured by the Phadebas reagent. Amylase secretion during a given incubation was expressed as the percentage of amylase present in the acini at the beginning of that incubation that was released into the extracellular medium.

BBN receptor [4] = molecular target: T2, BBN receptor; experiment: Stimulation of amylase release from rat pancreatic acinar cells by the compound alone (agonist test); assay type: cell-based
BBN receptor [5] = molecular target: T2, BBN receptor; experiment: Inhibition of 125I bombesin binding to rat pancreatic acinar cells; conditions: inhibition of 125I bombesin binding; IC50 divided by radioligand concentration
Experimental: Inhibition of equilibrium binding of ^125 I labeled bombesin to acinar membranes by the compounds was determined. The Kd was determined by dividing IC50 (the concentration of synthetic compound required to inhibit 50% of the specific binding of labelled BBN) by the concentration of radiolabeled peptide.

CCK Receptor = molecular target: T3, CCK Receptor (Rattus norvegicus, UniProt P30551); experiment: Specificity test, CCK-stimulated amylase secretion of rat pancreatic acinar cells after wash; conditions: PTC 821 1 μM
T3 sequence (P30551 1-444): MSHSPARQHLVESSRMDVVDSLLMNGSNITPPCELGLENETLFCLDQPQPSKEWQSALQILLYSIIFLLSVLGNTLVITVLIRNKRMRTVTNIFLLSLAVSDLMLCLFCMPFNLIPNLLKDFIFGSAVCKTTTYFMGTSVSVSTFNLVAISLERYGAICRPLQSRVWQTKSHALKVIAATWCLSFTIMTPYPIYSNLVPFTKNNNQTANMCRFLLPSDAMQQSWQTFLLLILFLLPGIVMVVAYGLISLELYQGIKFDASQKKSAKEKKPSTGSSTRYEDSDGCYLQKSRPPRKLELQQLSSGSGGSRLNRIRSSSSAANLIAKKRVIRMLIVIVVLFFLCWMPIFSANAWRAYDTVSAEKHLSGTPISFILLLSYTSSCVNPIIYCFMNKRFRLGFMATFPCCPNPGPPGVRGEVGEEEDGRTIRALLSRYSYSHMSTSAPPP
Experimental: (§2) Dispersed acinar cells from rat pancreas were prepared as indicated above.

BBN receptor [6] = molecular target: T2, BBN receptor; assay type: cell-based; conditions: PTC 821 1 μM
Experimental: as §2

[7] = 50% inhibition of specific [125I]Tyr4-BBN binding, NCI-H345, read-out: IC50

| IC50 (BBN receptor [2]; [7]) [µM] | SMILES | Ca++ effect (BBN receptor [1]) | IC50 (BBN receptor [3]) [µM] | EC50 (BBN receptor [4]) [µM] | Kd (BBN receptor [5]) [µM] | IC50 (BBN receptor [2]) [µM] | also measured |
| --- | --- | --- | --- | --- | --- | --- | --- |
| 4 | CCCNC(=O)[C@H]1CCC(=O)NCCCC[C@H](NC(C)=O)C(=O)N[C@@H](Cc2c[nH]c3ccccc23)C(=O)N[C@@H](C)C(=O)N[C@@H](C(C)C)C(=O)N[C@H](C)C(=O)N[C@@H](Cc2c[nH]cn2)C(=O)N1 [PCT 812] (Ac-KWAV[dA]H[dE]-NHPr; lactam 1-7) | A |  |  |  |  | Growth (NCI-H345): R; inhibition of BBN binding to SCLC membranes (in words) (BBN receptor [2]): only weak inhibition of BBN binding |
| > 10 | CC(=O)N[C@H]1CCCCNC(=O)[C@H](CC(C)C)NC(=O)[C@H](Cc2c[nH]cn2)NC(=O)[C@H](C)NC(=O)[C@H](C(C)C)NC(=O)[C@H](C)NC(=O)[C@H](Cc2c[nH]c3ccccc23)NC(=O)[C@H](CCC(N)=O)NC(=O)[C@H](CC(N)=O)NC1=O [PTC 803] (Ac-KNQWAVAHL; lactam 1-C) | -- | > 3 | > 3 | > 3 |  |  |
| 6 | CC(=O)N[C@@H]1CCCCNC(=O)[C@H](CC(C)C)NC(=O)[C@H](Cc2c[nH]cn2)NC(=O)[C@@H](C)NC(=O)[C@H](C(C)C)NC(=O)[C@H](C)NC(=O)[C@H](Cc2c[nH]c3ccccc23)NC(=O)[C@H](CCC(N)=O)NC(=O)[C@H](CC(N)=O)NC1=O [PTC 804] (Ac-[dK]NQWAV[dA]HL; lactam 1-C) | -- | > 3 | > 3 | > 3 |  | inhibition of BBN binding to SCLC membranes (in words) (BBN receptor [2]): only weak inhibition of BBN binding |
| > 10 | CC(=O)N[C@@H]1CCCCNC(=O)[C@H](CC(C)C)NC(=O)[C@H](Cc2c[nH]cn2)NC(=O)[C@H](C)NC(=O)[C@H](C(C)C)NC(=O)[C@H](C)NC(=O)[C@H](Cc2c[nH]c3ccccc23)NC(=O)[C@H](CCC(N)=O)NC(=O)[C@H](CC(N)=O)NC1=O [PTC 805] (Ac-[dK]NQWAVAHL; lactam 1-C) | -- | > 3 | > 3 | > 3 |  |  |
|  | CC(=O)N[C@H]1CCCCNC(=O)[C@H](CC(C)C)NC(=O)[C@H](Cc2c[nH]cn2)NC(=O)[C@@H](C)NC(=O)[C@H](C(C)C)NC(=O)[C@H](C)NC(=O)[C@H](Cc2c[nH]c3ccccc23)NC(=O)[C@H](CCC(N)=O)NC(=O)[C@H](CC(N)=O)NC1=O [PTC 806] (Ac-KNQWAV[dA]HL; lactam 1-C) |  | > 3 | > 3 | > 3 |  |  |
|  | CC(C)C[C@@H]1NC(=O)[C@H](Cc2c[nH]cn2)NC(=O)[C@@H](C)NC(=O)[C@H](C(C)C)NC(=O)[C@H](C)NC(=O)[C@H](Cc2c[nH]c3ccccc23)NC(=O)[C@H](CCC(N)=O)NC(=O)[C@H](CC(N)=O)NC(=O)[C@H](NC(=O)c2ccccc2)CCCCNC1=O [PTC 807] (Bz-[dK]NQWAV[dA]HL; lactam 1-C) | -- |  |  |  |  |  |
|  | CC(C)C[C@@H]1NC(=O)[C@H](Cc2c[nH]cn2)NC(=O)[C@@H](C)NC(=O)[C@H](C(C)C)NC(=O)[C@H](C)NC(=O)[C@H](Cc2c[nH]c3ccccc23)NC(=O)[C@H](CCC(N)=O)NC(=O)[C@H](CC(N)=O)NC(=O)[C@H](NC(=O)c2cccc3ccccc23)CCCCNC1=O [PTC 808] (1Naphthoyl-[dK]NQWAV[dA]HL; lactam 1-C) | -- |  |  |  |  |  |
|  | CCOC(=O)[C@H](CC(C)C)NC(=O)[C@H](Cc1c[nH]cn1)NC(=O)[C@@H](C)NC(=O)[C@@H](NC(=O)[C@H](C)NC(=O)[C@H](Cc1c[nH]c2ccccc12)NC(=O)[C@H](CCC(N)=O)NC(=O)[C@H](CC(N)=O)NC(=O)CCCc1ccc(N(CCO)CCCl)cc1)C(C)C [PTC 815B] (X1-NQWAV[dA]HL-OEt) |  |  |  |  | 0.045 |  |
|  | CCOC(=O)[C@H](CC(C)C)NC(=O)[C@H](Cc1c[nH]cn1)NC(=O)[C@@H](C)NC(=O)[C@@H](NC(=O)[C@H](C)NC(=O)[C@H](Cc1c[nH]c2ccccc12)NC(=O)[C@H](CCC(N)=O)NC(=O)[C@H](CC(N)=O)NC(=O)CCCc1ccc(N(CCCl)CCCl)cc1)C(C)C [PTC 815] (Chlorambucil-NQWAV[dA]HL-OEt) |  | 0.0085 ± 0.0005 | > 3 | 0.0107 ± 0.0034 | 0.035 |  |
|  | CC(=O)N[C@@H](Cc1c[nH]cn1)C(=O)N[C@@H](Cc1c[nH]c2ccccc12)C(=O)N[C@@H](C)C(=O)N[C@H](C(=O)N[C@H](C)C(=O)N[C@@H](Cc1c[nH]cn1)C(=O)NCCc1ccc(Br)cc1)C(C)C [PTC 820] (Ac-HWAV[dA]H-{NH(4-Br-phenethyl)}) | -- | > 3 | > 3 | > 3 | > 10 | Growth (NCI-H345): -- |
|  | CCOC(=O)[C@H](CC(C)C)NC(=O)[C@H](Cc1c[nH]cn1)NC(=O)[C@@H](C)NC(=O)[C@@H](NC(=O)[C@H](C)NC(=O)[C@H](Cc1c[nH]c2ccccc12)NC(=O)[C@H](Cc1c[nH]cn1)NC(=O)CCCc1ccc(N(CCCl)CCCl)cc1)C(C)C [PTC 821] (Chlorambucil-HWAV[dA]HL-OEt) |  | 0.0063 ± 0.0009 | > 3 | 0.0032 ± 0.0005 | 0.008 | Percent CCK Receptor Activity Recovered (CCK Receptor; 1 Min post-wash): 107%; Percent CCK Receptor Activity Recovered (CCK Receptor; 30 Min post-wash): 115%; Percent CCK Receptor Activity Recovered (CCK Receptor; 60 Min post-wash): 89%; Percent BBN Receptor Activity Recovered (BBN receptor [6]; 1 Min post-wash): 5%; Percent BBN Receptor Activity Recovered (BBN receptor [6]; 30 Min post-wash): 18%; Percent BBN Receptor Activity Recovered (BBN receptor [6]; 60 Min post-wash): 25%; changes in the appearance of the cells indicative of toxicity (BBN receptor [6]; rat pancreatic acinar cells): no changes in the appearance of the cells |

| SMILES | IC50 (BBN receptor [2]; [7]) [µM] | Ca++ effect (BBN receptor [1]) | IC50 (BBN receptor [3]) [µM] | EC50 (BBN receptor [4]) [µM] | Kd (BBN receptor [5]) [µM] | IC50 (BBN receptor [2]) [µM] | also measured |
| --- | --- | --- | --- | --- | --- | --- | --- |
| CC(C)C[C@@H]1NC(=O)[C@H](Cc2c[nH]cn2)NC(=O)[C@@H](C)NC(=O)[C@H](C(C)C)NC(=O)[C@H](C)NC(=O)[C@H](Cc2c[nH]c3ccccc23)NC(=O)[C@H](CCC(N)=O)NC(=O)[C@H](CC(N)=O)NC(=O)[C@H](Nc2ccc([N+](=O)[O-])cc2[N+](=O)[O-])CCCCNC1=O [PTC 809] | > 10 | -- | > 3 | > 3 | > 3 |  |  |
